# Assays:
# stationary-phase MRSA = experiment: Time-killing assay in PBS with or without pulsed laser (CFU enumeration); format: cell-based, S. aureus
# Procedure: To quantify viable bacterial cells, CFU experiments were performed. 100 μl of sample analyte was transferred into a 96-well plate and then three or four ten-fold serial dilution achieved by transferring 20 μl bacterial culture into 180 μl 1×PBS in the next dilution row. After serial dilution, an aliquot (4 μl) from each well was spotted onto sterile TSA plates. After incubating the plates overnight (˜18 hours) at 37° C., the colonies were enumerated, and cell number was calculated in CFU/ml. For each CFU enumeration experiment, three independent replicates were applied.
# Stationary-phase MRSA was prepared, washed and resuspended in 1×PBS at two-times of its original concentration. […] After laser treatment, the droplets were resuspended into 200 μl of 1×PBS (1:40 dilution) supplemented with antibiotics at different concentrations in a mini centrifuge tube (89166-278, VWR international). For example, daptomycin was added into MRSA solution after laser treatment at desired concentration of 0×MIC, 5×MIC, 10×MIC, 30×MIC, or 100×MIC supplemented with 50 μg/ml CaCl2). Corresponding groups without laser treatment were also conducted for comparison. These tubes were incubated within an orbital incubator (37° C., 200 rpm) for different incubation time. At each specific time point, 40 μl of aliquot from each group was transferred to a 96-well plate for follow-up CFU enumerating assay. In the case of tobramycin, additional antibiotic washing by 1×PBS was performed before the CFU experiment to avoid antibiotic interference. For time-killing assay in fresh human whole blood, similar protocol was followed as above, except that 1×PBS was replaced by fresh human whole blood and the initial stationary-phase MRSA solution was diluted by ten times with a concentration of ˜10^7 CFU/ml.
# MRSA USA300 = test system: MRSA USA300
# Procedure: Thereafter, an aliquot (20 μL) of the bacterial suspension was transferred onto a glass slide. Samples were exposed to blue light at different time-lengths and variable light intensities. […] The solutions were cultured for 20 min. The solution was serially diluted in sterile PBS and transferred to LB plates in order to enumerate the viable number of MRSA colony-forming units (CFUs). […] Data are presented as viable MRSA CFU/mL and percent survival of MRSA CFU/mL in the treated groups.
# Additive was defined as an FIC index of 1. Antagonism was defined as an FIC index of >4.
# [1] = test system: S. aureus (ATCC 6538) biofilm; settings: blue light plus low-concentration H2O2
smiles,measurement,setting,value
"OO [H2O2, hydrogen peroxide]",killing of stationary-phase MRSA,"stationary-phase MRSA; 220 μM with laser treatment, within 2 hours",4 log
same,killing of stationary-phase MRSA,"stationary-phase MRSA; alone, at 22 mM high concentration",minor killing
same,MRSA killing (CFUs),"MRSA USA300; 13.2 mM H2O2 combined with blue light 108 J/cm^2, ~10^7 MRSA",eradicated all MRSA
same,MRSA scavenged,MRSA USA300; 5-min culture with H2O2 after 2-min blue light exposure (24 J/cm^2),60%
same,antimicrobial efficiency relative to 2-min blue light alone,"MRSA USA300; H2O2 20 min, 13.2 mM after 2-min blue light (24 J/cm^2)",Two times antimicrobial efficiency
same,FIC index,"MRSA USA300; blue light and H2O2 against MRSA, ≤0.5 is synergy, according to estimation",≤ 0.38
same,MRSA killed inside biofilm,[1],92%

# Source: patent US20200306295A1, “METHOD AND DEVICE FOR ANNIHILATION OF Staphylococcus aureus” (priority 2017, published 2020)
